From patent US12109218B2, “Compositions of grapiprant and methods for using the same” (ARATANA THERAPEUTICS, INC., priority 2014, dated 2024)
Like-named read-outs stand apart in the source and are kept apart here.

Legend:
[1] = system: mechanical hyperalgesia induced by carrageenan model; settings: cited from earlier work
[2] = system: other human prostanoid receptor subtypes; settings: cited from earlier work
[3] = Dose linearity and effect of feeding, PK in cats (Example 10); assay type: in vivo, cat; settings: for Cmax / AUC(0-inf) / Tmax / half-life / AUC(0-t): serum, po
Experimental: Grapiprant was blended in a mixture of excipients as shown in Table 14 and administered orally by capsule to male and female cats.
The day of dosing was defined as Day 0. Following dosing, the animals were evaluated for clinical signs. Blood samples were collected prior to dosing and at 0.25, 0.5, 1, 2, 4, 8, 12, and 24-hours postdose. The blood samples were processed to serum and analyzed for grapiprant concentration. There were no test article-related clinical signs. The mean grapiprant pharmacokinetic results were as follow in Table 16.

CCc1nc2c(C)nc(C)cc2n1-c1ccc(CCNC(=O)NS(=O)(=O)c2ccc(C)cc2)cc1 [grapiprant, N-{2-[4-(2-ethyl-4,6-dimethyl-1H-imidazo[4,5-c]pyridin-1-yl)phenyl]ethyl}-N′-[(4-methylphenyl)sulfonyl]urea]
effect on mechanical hyperalgesia [1]: significantly reduces mechanical hyperalgesia | selectivity for EP4 over other human prostanoid receptor subtypes [2]: highly selective for the EP4 receptor over other human prostanoid receptor subtypes | Cmax ([3]; both sexes, 2 mg/kg, Group 1 fed cats, single oral 2 mg/kg capsule, males and females, read-out: Mean Cmax): 327 to 407 ng/mL | AUC(0-inf) ([3]; both sexes, 2 mg/kg, Group 1 fed cats, single oral 2 mg/kg capsule, males and females, read-out: mean AUC0-∞): 1070 to 1220 ng·h/mL | Tmax ([3]; both sexes, 2 mg/kg, Group 1 fed cats, single oral 2 mg/kg capsule, males and females, read-out: mean Tmax): 1.33 to 1.65 h | half-life ([3]; both sexes, 2 mg/kg, Group 1 fed cats, single oral 2 mg/kg capsule, males and females, read-out: mean terminal half-life): 2.4 to 3.12 h | Cmax ([3]; both sexes, 2 mg/kg, Group 2 fasted cats, single oral 2 mg/kg capsule, males and females, read-out: Mean Cmax): 1100 to 1630 ng/mL | AUC(0-inf) ([3]; both sexes, 2 mg/kg, Group 2 fasted cats, single oral 2 mg/kg capsule, males and females, read-out: mean AUC0-∞): 1970 to 2850 ng·h/mL | Tmax ([3]; both sexes, 2 mg/kg, Group 2 fasted cats, single oral 2 mg/kg capsule, males and females, read-out: mean Tmax): 1.01 h | half-life ([3]; both sexes, 2 mg/kg, Group 2 fasted cats, single oral 2 mg/kg capsule, males and females, read-out: mean terminal half-life): 1.47 to 2.16 h | Cmax ([3]; both sexes, 6 mg/kg, Group 3 fasted cats, single oral 6 mg/kg capsule, males and females, read-out: Mean Cmax): 2970 to 3110 ng/mL | AUC(0-inf) ([3]; both sexes, 6 mg/kg, Group 3 fasted cats, single oral 6 mg/kg capsule, males and females, read-out: mean AUC0-∞): 3750 to 6350 ng·h/mL | Tmax ([3]; both sexes, 6 mg/kg, Group 3 fasted cats, single oral 6 mg/kg capsule, males and females, read-out: mean Tmax): 0.99 to 1.17 h | half-life ([3]; both sexes, 6 mg/kg, Group 3 fasted cats, single oral 6 mg/kg capsule, males and females, read-out: mean terminal half-life): 2.79 to 4.98 h | Cmax ([3]; both sexes, 10 mg/kg, Group 4 fasted cats, single oral 10 mg/kg capsule, males and females, read-out: Mean Cmax): 4280 to 7130 ng/mL | AUC(0-inf) ([3]; both sexes, 10 mg/kg, Group 4 fasted cats, single oral 10 mg/kg capsule, males and females, read-out: mean AUC0-∞): 7580 to 10900 ng·h/mL | Tmax ([3]; both sexes, 10 mg/kg, Group 4 fasted cats, single oral 10 mg/kg capsule, males and females, read-out: mean Tmax): 0.728 to 1.33 h | half-life ([3]; both sexes, 10 mg/kg, Group 4 fasted cats, single oral 10 mg/kg capsule, males and females, read-out: mean terminal half-life): 4.03 to 4.19 h | tolerability ([3]; cats, one-time oral capsule, 2 (fed and fasted), 6, and 10 mg/kg): well-tolerated with no test article-related clinical signs | dose linearity of exposure (AUC0-∞) ([3]; fasted cats, Groups 2-4, 2-10 mg/kg): roughly dose-linear but less than dose-proportional | AUC(0-t) ([3]; female, 2 mg/kg, cats, Group 1, 2 mg/kg capsule, Fed, Female, mean): 990 ng·h/mL | AUC(0-inf) ([3]; female, 2 mg/kg, cats, Group 1, 2 mg/kg capsule, Fed, Female, mean, read-out: AUC0-∞): 1070 ng·h/mL | Cmax ([3]; female, 2 mg/kg, cats, Group 1, 2 mg/kg capsule, Fed, Female, mean, read-out: Cmax): 327 ng/mL | Tmax ([3]; female, 2 mg/kg, cats, Group 1, 2 mg/kg capsule, Fed, Female, mean, read-out: Tmax): 1.33 h | half-life ([3]; female, 2 mg/kg, cats, Group 1, 2 mg/kg capsule, Fed, Female, mean, read-out: t1/2 (converted)): 2.4 h | AUC(0-t) ([3]; female, 2 mg/kg, cats, Group 2, 2 mg/kg capsule, Fasted, Female, mean): 2780 ng·h/mL | AUC(0-inf) ([3]; female, 2 mg/kg, cats, Group 2, 2 mg/kg capsule, Fasted, Female, mean, read-out: AUC0-∞): 2850 ng·h/mL | Cmax ([3]; female, 2 mg/kg, cats, Group 2, 2 mg/kg capsule, Fasted, Female, mean, read-out: Cmax): 1630 ng/mL | Tmax ([3]; female, 2 mg/kg, cats, Group 2, 2 mg/kg capsule, Fasted, Female, mean, read-out: Tmax): 1.01 h | half-life ([3]; female, 2 mg/kg, cats, Group 2, 2 mg/kg capsule, Fasted, Female, mean, read-out: t1/2 (converted)): 1.47 h | AUC(0-t) ([3]; female, 6 mg/kg, cats, Group 3, 6 mg/kg capsule, Fasted, Female, mean): 6130 ng·h/mL | AUC(0-inf) ([3]; female, 6 mg/kg, cats, Group 3, 6 mg/kg capsule, Fasted, Female, mean, read-out: AUC0-∞): 6350 ng·h/mL | Cmax ([3]; female, 6 mg/kg, cats, Group 3, 6 mg/kg capsule, Fasted, Female, mean, read-out: Cmax): 3110 ng/mL | Tmax ([3]; female, 6 mg/kg, cats, Group 3, 6 mg/kg capsule, Fasted, Female, mean, read-out: Tmax): 1.17 h | half-life ([3]; female, 6 mg/kg, cats, Group 3, 6 mg/kg capsule, Fasted, Female, mean, read-out: t1/2 (converted)): 4.98 h | AUC(0-t) ([3]; female, 10 mg/kg, cats, Group 4, 10 mg/kg capsule, Fasted, Female, mean): 10700 ng·h/mL | AUC(0-inf) ([3]; female, 10 mg/kg, cats, Group 4, 10 mg/kg capsule, Fasted, Female, mean, read-out: AUC0-∞): 10900 ng·h/mL | Cmax ([3]; female, 10 mg/kg, cats, Group 4, 10 mg/kg capsule, Fasted, Female, mean, read-out: Cmax): 7130 ng/mL | Tmax ([3]; female, 10 mg/kg, cats, Group 4, 10 mg/kg capsule, Fasted, Female, mean, read-out: Tmax): 0.73 h | half-life ([3]; female, 10 mg/kg, cats, Group 4, 10 mg/kg capsule, Fasted, Female, mean, read-out: t1/2 (converted)): 4.19 h | AUC(0-t) ([3]; male, 2 mg/kg, cats, Group 1, 2 mg/kg capsule, Fed, Male, mean): 1030 ng·h/mL | AUC(0-inf) ([3]; male, 2 mg/kg, cats, Group 1, 2 mg/kg capsule, Fed, Male, mean, read-out: AUC0-∞): 1220 ng·h/mL | Cmax ([3]; male, 2 mg/kg, cats, Group 1, 2 mg/kg capsule, Fed, Male, mean, read-out: Cmax): 407 ng/mL | Tmax ([3]; male, 2 mg/kg, cats, Group 1, 2 mg/kg capsule, Fed, Male, mean, read-out: Tmax): 1.65 h | half-life ([3]; male, 2 mg/kg, cats, Group 1, 2 mg/kg capsule, Fed, Male, mean, read-out: t1/2 (converted)): 3.12 h | AUC(0-t) ([3]; male, 2 mg/kg, cats, Group 2, 2 mg/kg capsule, Fasted, Male, mean): 2290 ng·h/mL | AUC(0-inf) ([3]; male, 2 mg/kg, cats, Group 2, 2 mg/kg capsule, Fasted, Male, mean, read-out: AUC0-∞): 1970 ng·h/mL | Cmax ([3]; male, 2 mg/kg, cats, Group 2, 2 mg/kg capsule, Fasted, Male, mean, read-out: Cmax): 1100 ng/mL | Tmax ([3]; male, 2 mg/kg, cats, Group 2, 2 mg/kg capsule, Fasted, Male, mean, read-out: Tmax): 1.01 h | half-life ([3]; male, 2 mg/kg, cats, Group 2, 2 mg/kg capsule, Fasted, Male, mean, read-out: t1/2 (converted)): 2.16 h | AUC(0-t) ([3]; male, 6 mg/kg, cats, Group 3, 6 mg/kg capsule, Fasted, Male, mean): 3650 ng·h/mL | AUC(0-inf) ([3]; male, 6 mg/kg, cats, Group 3, 6 mg/kg capsule, Fasted, Male, mean, read-out: AUC0-∞): 3750 ng·h/mL | Cmax ([3]; male, 6 mg/kg, cats, Group 3, 6 mg/kg capsule, Fasted, Male, mean, read-out: Cmax): 2970 ng/mL | Tmax ([3]; male, 6 mg/kg, cats, Group 3, 6 mg/kg capsule, Fasted, Male, mean, read-out: Tmax): 0.99 h
